One test relates to rat C3-[…]. Briefly: C3 deposition assay, rat serum on mannan-coated plates. The note with it: average IC50. The test is classed as biochemical. On the procedure: (§1) 3. C3 Deposition Assay (Human, Rat, Mouse, Dog, Mini-Pig)
(§2) The C3 deposition assay was conducted essentially as described (reference). Multi well plates (Greiner-Nunc 384 Maxi Sorp #464718) were coated over night with Mannan from Saccharomyces cerevisiae (Sigma M7504, 10 μg/mL in 0.05 M carbonate-bicarbonate buffer, pH 9.6) at 4° C. Wells were washed three times with TBS and subsequently incubated for 2 hours with 50 μL of 1% bovine serum albumin (BSA) in Tris-buffered saline (TBS) at 37° C. in order to block non-specific binding. After this step and each of the following incubation steps wells were washed three times with C3 wash buffer (TBS; 0.05% Tween 20; 5 mM CaCl2). […] When appropriately developed the color reaction was stopped by addition of 25 μL of stop solution (Sigma S5814) and quantified on a photometer by measuring absorption at a wavelength of 450 nm. Antibodies were diluted in C3 wash buffer supplemented with 0.5% BSA.

In the next test the target is T1, rat MASP2 (Rattus norvegicus, UniProt Q9JJS8).
T1 construct: Ig-kappa secretion signal (N, cleaved yes); made in house; host or cells: HEK293 (ATCC No. CRL-1573)
Briefly: Biochemical rat MASP2 assay (FRET substrate). As to conditions: average IC50; recombinant rat MASP2, FRET substrate. An excerpt: (§3) 4. Biochemical Rat MASP-1 and MASP-2 Assay
(§4) 4.1 Recombinant Expression and Protein Production of Recombinant Human and Rat MASP1 and MASP2 Active Proteases.
(§5) The MASP1 or MASP2 expression vectors were transfected into the HEK293 (ATCC No. CRL-1573) cell line using Lipofectamine LTX® Reagent (Thermo-Fischer), as described by the manufacturer. The mature form of the recombinant rat MASP1 and MASP2 proteases were secreted into the culture medium. The MASP1 and MASP2 proteins were purified from the conditioned media by affinity chromatography on Ni-NTA Superflow resin (Qiagen) as described by the manufacturer.
4.3 Biochemical Rat MASP2 Assay.
(§6) Recombinant rat MASP2 enzyme produced in the HEK 293 cells was diluted in the reaction buffer (50 mM HEPES pH 8,0; 100 mM NaCl; 0.01% CHAPS; 0.5 mM Gluthathione) to the concentration of 20 nM and 25 μl was transferred into each single well of 384-well white microtiter plate (Greiner Bio One 781075). 1 μl of the inhibitor compound solution (dissolved in DMSO, at the corresponding concentration) or pure DMSO as a control was added to the same wells. The enzymatic reaction was initiated by addition of 25 μl of 30 μM solution of the FRET substrate Abz-IEGRTSED-(Lys)Dnp-NH2 (SEQ ID NO: 9); (ABZ—2-aminobenzoyl; DNP_2,4-dinitrophenyl; custom synthesis by Jerini Peptide Technologies, Berlin) in the reaction buffer. The microtiter plate was incubated for 60-120 min at the temperature of 32 C. The increase of fluorescence intensity was measured in appropriate fluorescence plate reader (e.g. TECAN Ultra) using excitation wavelength of 320 nm and emission wavelength of 420 nm. IC50 values were calculated from percentage of inhibition of rat MASP2 activity as a function of test compound concentration.

The next test concerns Human C3-[…]. Briefly: C3 deposition assay, human serum on mannan-coated plates. As to conditions: average IC50, read-out: Human C3-DEPOSITION SERUM IC50. The test is classed as biochemical. On the procedure: as §1, §2
Another test has as its target T2, rat MASP1 (Rattus norvegicus, UniProt Q8CHN8).
T2 construct: Ig-kappa secretion signal (N, cleaved yes); made in house; host or cells: HEK293 (ATCC No. CRL-1573)
T2 sequence (Q8CHN8 302-453 limits assumed): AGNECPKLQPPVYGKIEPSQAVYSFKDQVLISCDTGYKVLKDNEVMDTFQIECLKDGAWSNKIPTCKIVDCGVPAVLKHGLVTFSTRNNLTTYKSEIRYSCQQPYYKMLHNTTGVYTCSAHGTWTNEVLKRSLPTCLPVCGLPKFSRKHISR
T2 sequence (Q8CHN8 454-704 limits assumed): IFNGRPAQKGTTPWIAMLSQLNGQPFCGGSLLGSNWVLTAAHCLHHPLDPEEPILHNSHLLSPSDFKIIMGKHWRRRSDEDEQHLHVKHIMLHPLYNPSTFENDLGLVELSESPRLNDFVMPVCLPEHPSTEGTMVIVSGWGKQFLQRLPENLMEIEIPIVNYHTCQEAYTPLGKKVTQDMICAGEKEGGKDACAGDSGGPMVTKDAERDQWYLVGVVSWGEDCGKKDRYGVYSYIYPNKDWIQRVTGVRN
Briefly: Biochemical rat MASP1 assay (FRET substrate). As to conditions: average IC50; recombinant rat MASP1, FRET substrate.
Text: as §3, §4
A truncated cDNA sequence of rat MASP1 encoding the fragment corresponding to the amino acids 302-704 with an C-terminal His Tag and N-terminal Ig-kappa secretion signal (SEQ ID No: 4) was subcloned into the mammalian expression vector pcDNA3.1 (Invitrogen).
as §5
4.2 Biochemical Rat MASP1 Assay.
Recombinant rat MASP1 enzyme produced in the HEK 293 cells was diluted in the reaction buffer (50 mM HEPES pH 8,0; 100 mM NaCl; 0.01% CHAPS; 0.5 mM Gluthathione) to the concentration of 4 nM and 25 μl was transferred into each single well of 384-well white microtiter plate (Greiner Bio One 781075). 1 μl of the inhibitor compound solution (dissolved in DMSO, at the corresponding concentration) or pure DMSO as a control was added to the same wells. The enzymatic reaction was initiated by addition of 25 μl of 40 μM solution of the FRET substrate Dabcyl-[…]-Glu(Edans)-NH2 (SEQ ID NO: 8); (Dabcyl—4-((4-(dimethylamino)phenyl)azo)benzoic acid; Edans—5-[(2-Aminoethyl) amino]naphthalene-1-sulfonyl; custom synthesis by Jerini Peptide Technologies, Berlin) in the reaction buffer. The microtiter plate was incubated for 60-120 min at the temperature of 32 C. The increase of fluorescence intensity was measured in appropriate fluorescence plate reader (e.g. TECAN Ultra) using excitation wavelength of 340 nm and emission wavelength of 490 nm. IC50 values were calculated from percentage of inhibition of rat […] activity as a function of test compound concentration.

The next test has as its target T3, human MASP1 (Homo sapiens, UniProt P48740).
T3 construct: Ig-kappa secretion signal (N, cleaved yes); made in house; host or cells: HEK293 (ATCC No. CRL-1573)
T3 sequence (P48740 297-448): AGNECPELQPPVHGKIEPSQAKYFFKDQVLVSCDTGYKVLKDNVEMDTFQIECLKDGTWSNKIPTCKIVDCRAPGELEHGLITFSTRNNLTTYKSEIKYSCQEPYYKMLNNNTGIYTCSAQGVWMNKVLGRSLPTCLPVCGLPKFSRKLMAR
T3 sequence (P48740 449-699): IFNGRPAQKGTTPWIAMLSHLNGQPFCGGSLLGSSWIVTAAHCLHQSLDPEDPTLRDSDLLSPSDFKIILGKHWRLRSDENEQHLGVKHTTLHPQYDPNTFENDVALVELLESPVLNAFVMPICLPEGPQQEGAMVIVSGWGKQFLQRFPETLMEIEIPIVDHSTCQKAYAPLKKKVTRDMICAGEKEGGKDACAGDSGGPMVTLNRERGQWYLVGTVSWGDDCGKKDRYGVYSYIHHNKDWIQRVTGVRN
Briefly: Biochemical human MASP1 assay (FRET substrate). As to conditions: average IC50.
Text: (§7) 2.1 Recombinant Expression and Protein Production of Recombinant Human MASP1 and MASP2 Active Proteases.
(§8) The MASP1 or MASP2 expression vectors were transfected into the HEK293 (ATCC No. CRL-1573) cell line using Lipofectamine LTX® Reagent (Thermo-Fischer), as described by the manufacturer. […] The MASP1 and MASP2 proteins were purified from the conditioned media by affinity chromatography on Ni-NTA Superflow resin (Qiagen) as described by the manufacturer.
2.2 Biochemical Human MASP1 Assay
as §6, with “human MASP1” for “rat MASP2”, “The enzymatic reaction was initiated by addition of 25 μl of 30 μM solution of the FRET substrate Abz-IEGRTSED-(Lys)Dnp-NH2 (SEQ ID NO: 9); (ABZ—2-aminobenzoyl; DNP_2,4-dinitrophenyl; custom synthesis by Jerini Peptide Technologies, Berlin) in the reaction buffer.” left out

In the next test the target is T4, human MASP2 (Homo sapiens, UniProt O00187).
T4 construct: Ig-kappa secretion signal (N, cleaved yes); made in house; host or cells: HEK293 (ATCC No. CRL-1573)
Briefly: Biochemical human MASP2 assay (FRET substrate). The note with it: average IC50.
Text: as §7, §8
2.3 Biochemical Human MASP2 Assay
as §6, with “Recombinant human” for “Recombinant rat”, “wells. […]” for “wells. The enzymatic reaction was initiated by addition of 25 μl of 30 μM solution of the FRET substrate Abz-IEGRTSED-(Lys)Dnp-NH2 (SEQ ID NO: 9); (ABZ—2-aminobenzoyl; DNP_2,4-dinitrophenyl; custom synthesis by Jerini Peptide Technologies, Berlin) in the reaction buffer.”, “of 340” for “of 320”, “of 490” for “of 420”, “of human” for “of rat”

Counter-ions that a name gives are not always drawn. Bridge positions count the residues as written; N and C are the ends. Square brackets hold non-standard residues; d marks the D form. Peptide text beside a SMILES is read from it. PEG9 = NCCOCCOCCOCCOCCOCCOCCOCCOCCOCCC(=O)O; tBuAla = CC(C)(C)C[C@H](N)C(=O)O; Pen = CC(C)(S)[C@H](N)C(=O)O; NMeC = CN[C@@H](CS)C(=O)O; Sar = CNCC(=O)O

T1 sequence (Q9JJS8 296-443): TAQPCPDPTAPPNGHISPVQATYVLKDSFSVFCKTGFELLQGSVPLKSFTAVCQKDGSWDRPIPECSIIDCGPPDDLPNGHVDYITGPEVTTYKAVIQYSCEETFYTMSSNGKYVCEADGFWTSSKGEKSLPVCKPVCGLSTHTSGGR
T1 sequence (Q9JJS8 444-685): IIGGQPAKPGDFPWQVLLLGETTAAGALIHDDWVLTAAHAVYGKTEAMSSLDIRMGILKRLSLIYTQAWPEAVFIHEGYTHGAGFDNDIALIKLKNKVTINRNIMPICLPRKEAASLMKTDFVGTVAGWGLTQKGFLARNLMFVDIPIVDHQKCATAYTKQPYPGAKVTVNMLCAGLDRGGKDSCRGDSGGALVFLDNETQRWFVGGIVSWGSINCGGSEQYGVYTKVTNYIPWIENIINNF
T4 sequence (O00187 297-444): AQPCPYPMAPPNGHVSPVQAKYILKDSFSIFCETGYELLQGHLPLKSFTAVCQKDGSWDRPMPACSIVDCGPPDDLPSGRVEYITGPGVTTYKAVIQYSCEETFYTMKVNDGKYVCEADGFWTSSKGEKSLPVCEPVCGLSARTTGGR
T4 sequence (O00187 445-686): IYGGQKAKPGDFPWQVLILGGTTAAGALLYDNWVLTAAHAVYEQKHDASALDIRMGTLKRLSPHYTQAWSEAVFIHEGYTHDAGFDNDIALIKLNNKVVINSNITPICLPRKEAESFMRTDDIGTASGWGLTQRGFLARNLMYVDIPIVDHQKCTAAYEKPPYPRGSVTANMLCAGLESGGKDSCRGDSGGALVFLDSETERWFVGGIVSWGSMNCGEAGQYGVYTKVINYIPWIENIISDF

In general, IC50 refers to the concentration at which inhibition is half-maximal. In the case of `CC[C@H](C)[C@H](NC(=O)[C@H](C)N)C(=O)N[C@H]1CSSC(C)(C)[C@@H](C(=O)N[C@H](C(=O)N2CCC[C@H]2C(=O)N[C@@H](CC(=O)O)C(N)=O)[C@@H](C)CC)NC(=O)[C@H]([C@@H](C)CC)NC(=O)[C@@H]2C[C@@H]3CCCC[C@@H]3N2C(=O)[C@@H]2CCCN2C(=O)[C@H](CC(C)C)NC(=O)[C@H](CO)NC(=O)[C@H](CCCNC(=N)N)NC(=O)[C@H](CO)NC1=O` [Example 75, AIC+SRSLP-(Oic)-I-(Pen)+IPD-NH2], the IC50 with rat C3-[…] is 183 nM; on rat MASP2 it was 34.9 nM; with Human C3-[…] it was 32 nM; on rat MASP1, 35 nM; on human MASP1 it was 2.23 nM.

As to “AIC+SRSLP-(Oic)-I-(Pen)+IPD-NH2 [Example 27]”, the IC50 with rat C3-[…] was 146 nM; with Human C3-[…], 8.5 nM.

Take `CCC(C)[C@H](NC(=O)[C@H]1NC(=O)[C@H]([C@@H](C)CC)NC(=O)[C@@H]2C[C@@H]3CCCC[C@@H]3N2C(=O)[C@@H]2CCCN2C(=O)[C@H](CC(C)C)NC(=O)[C@H](CO)NC(=O)[C@H](CCCNC(=N)N)NC(=O)[C@H](CO)NC(=O)[C@@H](NC(=O)[C@@H](NC(=O)[C@H](C)NC)[C@@H](C)CC)CSSC1(C)C)C(=O)N1CCC[C@H]1C(=O)N[C@@H](CC(=O)NCc1ccccc1)C(N)=O` (stereo in doubt) [Example 462]: the IC50 at rat MASP2 came to 150 nM; in the test on Human C3-[…] it was 61 nM; on rat MASP1, 160 nM; at human MASP1, 12 nM.

For `CC[C@H](C)[C@H](NC(=O)[C@H](C)N)C(=O)N[C@H]1CSSC[C@@H](C(=O)N[C@H](C(=O)N2CCC[C@H]2C(=O)N[C@@H](CC(=O)O)C(N)=O)[C@@H](C)CC)N(C)C(=O)[C@H]([C@@H](C)CC)NC(=O)[C@@H]2CCCN2C(=O)[C@@H]2CCCN2C(=O)[C@H](CC(C)(C)C)NC(=O)[C@H](CO)NC(=O)[C@H](CCCNC(=N)N)NC(=O)[C@H](CO)NC1=O` [Example 48, AIC+SRS-((tBu)A)-PPI-((N-Me)C)+IPD-NH2] (H-AICSRS[tBuAla]PPI[NMeC]IPD-NH2; disulfide 3-11), the IC50 with Human C3-[…] came out at 102 nM; at rat MASP1 it was 51.5 nM; on human MASP2, 225 nM; on human MASP1, 1.95 nM.

Consider `CC[C@H](C)[C@H](NC(=O)[C@H](C)N)C(=O)N[C@H]1CSSC(C)(C)[C@@H](C(=O)N[C@H](C(=O)N2CCC[C@H]2C(=O)N[C@@H](CC(=O)O)C(=O)O)[C@@H](C)CC)NC(=O)[C@H]([C@@H](C)CC)NC(=O)[C@@H]2C[C@@H]3CCCC[C@@H]3N2C(=O)[C@@H]2CCCN2C(=O)[C@H](CC(C)C)NC(=O)[C@H](CO)NC(=O)[C@H](CCCNC(=N)N)NC(=O)[C@H](CO)NC1=O` [Example 29, AIC+SRSLP-(Oic)-I-(Pen)+IPD-OH (HCl Salt)], for which the IC50 is 196 nM with rat C3-[…]; 17.4 nM at rat MASP2; 6.99 nM in the test on Human C3-[…]; 10.5 nM at rat MASP1; 2.45 nM on human MASP1.

For the compound “AIC+SRSLP-(Oic)-I-(Pen)+IPD-OH [Example 5]”, the IC50 with rat C3-[…] amounted to 214 nM; with Human C3-[…], 10.3 nM.

`CC[C@H](C)[C@H](NC(=O)CNC)C(=O)N[C@H]1CSSC(C)(C)[C@@H](C(=O)N[C@H](C(=O)N2CCC[C@H]2C(=O)NCCOCCOCCOCCOCCOCCOCCOCCOCCOCCC(N)=O)[C@@H](C)CC)NC(=O)[C@H]([C@@H](C)CC)NC(=O)[C@@H]2CCCN2C(=O)[C@@H]2CCCN2C(=O)[C@H](CC(C)(C)C)NC(=O)[C@H](CO)NC(=O)[C@H](CCCNC(=N)N)NC(=O)[C@H](CO)NC1=O` [Example 44, ((N-Me)G)-IC+SRS-((tBu)A)-PPI-(Pen)+IP-(PEG9(31 Atoms))-NH2] (H-[Sar]ICSRS[tBuAla]PPI[Pen]IP[PEG9]-NH2; disulfide 3-11): the IC50 at rat MASP2 was 35 nM; in the test with Human C3-[…], 68.5 nM; at rat MASP1, 87 nM; against human MASP2, 73 nM.

These data come from patent publication US11667675B2, “MASP inhibitory compounds and uses thereof” (Bayer Aktiengesellschaft, priority 2019, dated 2023).
